# Patent publication US20260000496A1, “MATERIALS AND METHODS FOR DRUG-INDUCED GINGIVAL OVERGROWTH” (Optimed Technology, Inc., priority 2019, published 2026)
# Tests used:
# [1] = system: drug-induced gingival overgrowth (DIGO); assay: Mice study #2: preventive and active treatment of DIGO, gingival overgrowth; assay type: in vivo, C57BL/6 mice
# Method: Using the C57BL/6, the DIGO were induced in 33 male mice for 14 days in an anaesthetized condition as described above. […] In the prevention group, folic acid (10 μg/ml) was included in the drinking water from the time of ligature placement until end of the study (14 days). […] In the combined prevention and treatment group, both modes of folic acid treatments had provided including PO and local gel application as described above. Mice study #2: Validation study for preventive and active treatment for DIGO. […] One set of these mice were used as a control disease group (FIG. 23A) while the other group was treated with folic acid (gel and in drinking water) (FIG. 23B). In the prevention and treatment group, folic acid (10 μg/ml) (Sigma-Aldrich, St. Louis MO) was included in the drinking water from the time of suture placement until end of the study (14 days). Additionally, gel applications were repeated daily until the end of the study (14 days). The four groups in this study were: • 1. Control group (n=2): no interventions were performed • 2. […] 2D planimetry with stereomicroscopy. […] 3D Digital Imaging and Volumetric Analysis. A 3Shape TRIOS® intraoral digital scanner was used to scan all of the dissected tissue and create a 3D STL (STereoLithography) file from each scan. Autodesk […]® (Autodesk 23 Inc., CA, USA) was used to overlay each individual scan on top of one another, keeping each of the distinct mice studies separately. Anatomical landmarks of the mandibular incisors, interdental papilla, and molars were used to make sure scans were accurately overlaid. Autodesk […]® was then used to selectively remove the mandibular incisors from each digital scan. The scans were all saved and imported into Autodesk Netfabb® (Autodesk Inc., CA, USA) where plane cuts were used to simultaneously crop all scans to include only the essential parts of the gingival tissue that would indicate an increase or decrease in growth. The cropped scans were saved and imported into open source software platform 3DSlicer 4.8, where they were volumetrically analyzed using the “Volumes” module. The quantified volume values were statistically analyzed in GraphPad Prism® 7 (GraphPad Software Inc., CA, USA).
# TNF-α = TNF-α ELISA of mice gingival tissue lysates; assay type: in vivo; conditions: n=5, p<0.05
# Method: Enzyme linked immunosorbent assay (ELISA). ELISA was conducted with a mouse TNF-α ELISA Kit (PeproTech, USA) and TGF-β Emax ImmunoAssay System (Promega USA) to detect the TNF-α and TGF-β respectively. After normalization of the total cells or tissue protein lysates, 20 μg protein of each sample was used for the detection of TNF-α or TGF-β. ELISA was performed according to the manufacturers' instructions. For TNF-α, 100 ng/100 μl of capture antibody was added to each well of 96 well assay plate and incubated for overnight at room temperature. Blocking buffer of 200 μl per well were added to each well and incubated for 1 hour at room temperature. 20 μg of each protein sample as well as TNF-α standard (from 2 ng/ml to 0 ng/ml) were added and incubated the plates for 2 hours. 50 ng/100 μl of detection antibody was added in each well and incubated for 2 hours. Avidin-HRP conjugated antibody with a dilution of 1:2000 was added for 30 minutes. 100 μl per well of ABTS solution was added to each well and incubated until color change. Optical absorbing values were read at 405 and 450 nm and corrected by 650 nm. […] TMB One Solution was added for 15 minutes and the reaction were stopped using 100 μl of 1N hydrochloric acid and the absorbance at 450 nm were recorded on a plate reader. Data were analyzed using excel software. […]
# Mice gingival tissue lysates were assessed for TNF-α levels using an ELISA (n=5).
# NFκB = assay: Mice study #2: NFκB immunostaining of gingival tissue; assay type: in vivo, C57BL/6 mice
# Method: Mice study #2: Validation study for preventive and active treatment for DIGO. […] One set of these mice were used as a control disease group (FIG. 23A) while the other group was treated with folic acid (gel and in drinking water) (FIG. 23B). In the prevention and treatment group, folic acid (10 μg/ml) (Sigma-Aldrich, St. Louis MO) was included in the drinking water from the time of suture placement until end of the study (14 days). Additionally, gel applications were repeated daily until the end of the study (14 days). The four groups in this study were: • 1. Control group (n=2): no interventions were performed • 2.
# Histopathology and Immunohistochemistry. Mice mandibles were fixed in 10% formaldehyde for overnight at 4° C. on the shaker with 45 rpm and then the solutions were replaced with 70% ethanol. The tissues were decalcified with 10% ethylenediaminetetraacetic acid (EDTA) for 1 week and were dehydrated through graded ethanol, cleared with xylene, and embedded in paraffin. 4 μm serial sections were cut in a buccal-lingual direction and stained with Hematoxylin and Eosin (HE) and observed under light microscopy for histomorphological evaluations.
# For immunohistochemistry, unstained sections were deparaffinized in xylene for 10 minutes and then transferred to ethanol for 20 minutes. […]
smiles,measurement,setting,value
Nc1nc2ncc(CNc3ccc(C(=O)N[C@@H](CCC(=O)O)C(=O)O)cc3)nc2c(=O)[nH]1 [folic acid],"gingival overgrowth, 2D planimetry with stereomicroscopy",[1]; active treatment after 1 week of disease,even further reduce these gingival overgrowths
same,"gingival overgrowth, clinical images","[1]; active treatment: DIGO 1 week, sutures removed and cyclosporine stopped, then folic acid p.o. & local",effectively reduce gingival overgrowths
same,"mean gingival volume, 3D morphometric analysis","[1]; folic acid group, day 14, n=5, disease group 23.17±1.134 mm^3, p<0.005",~16.19±0.9224 mm^3
same,"gingival overgrowth, 2D planimetry with stereomicroscopy",[1]; preventive treatment,all mice appear to respond
same,"gingival overgrowth, clinical images","[1]; preventive treatment, folic acid p.o. & local, 14 days",prominently reduced gingival overgrowth
same,"overlaid 3D volumes, control vs folic acid treated","[1]; representative samples, day 14, some increase on lingual surfaces",little difference
same,TNF-α levels in mice gingival tissue lysates,TNF-α,reduced the expression of TNF-α
same,"NFκB epithelial expression, control, disease and folic acid-treated groups",NFκB,higher in the control group followed by the disease group
